According to patent publication US9266892B2, “Fused pyrazoles as FGFR inhibitors” (Incyte Corporation, priority 2012, dated 2016):
pIC50: −log10 of the molar value.

Experiments:
Type in all cases: biochemical
FGFR1 = biological target: T1, FGFR1 (Homo sapiens, UniProt P11362); assay: FGFR Enzymatic Assay (FRET peptide phosphorylation), FGFR1; conditions: FGFR1 0.02 nM, ATP 210 μM
T1 construct: purchased Millipore or Invitrogen
Procedure: (§1) The inhibitor potency of the Example compounds was measured in an enzyme assay that measures peptide phosphorylation using FRET measurements to detect product formation. Inhibitors were serially diluted in DMSO and a volume of 0.5 μL was transferred to the wells of a 384-well plate. For FGFR3, a 10 μL volume of FGFR3 enzyme (Millipore) diluted in assay buffer (50 mM HEPES, 10 mM MgCl2, 1 mM EGTA, 0.01% Tween-20, 5 mM DTT, pH 7.5) was added to the plate and pre-incubated for 5-10 minutes. Appropriate controls (enzyme blank and enzyme with no inhibitor) were included on the plate. The assay was initiated by the addition of a 10 μL solution containing biotinylated EQEDEPEGDYFEWLE peptide substrate (SEQ ID NO: 1) and ATP (final concentrations of 500 nM and 140 μM respectively) in assay buffer to the wells. The plate was incubated at 25° C. for 1 hr. The reactions were ended with the addition of 10 μL/well of quench solution (50 mM Tris, 150 mM NaCl, 0.5 mg/mL BSA, pH˜7.8, 30 mM EDTA with Perkin Elmer Lance Detection Reagents at 3.75 nM Eu-antibody PY20 and 180 nM APC-Streptavidin). The plate was allowed to equilibrate for 1 hour before scanning the wells on a PheraStar plate reader (BMG Labtech). The enzymes were purchased from Millipore or Invitrogen.
(§2) FGFR1 and FGFR2 were measured under equivalent conditions with the following changes in enzyme and ATP concentrations: FGFR1, 0.02 nM and 210 μM, respectively and FGFR2, 0.01 nM and 100 μM, respectively.
(§3) GraphPad prism3 was used to analyze the data. The IC50 values were derived by fitting the data to the equation for a sigmoidal dose-response with a variable slope. Y=Bottom+(Top−Bottom)/(1+10^((Log IC50−X)*HillSlope)) where X is the logarithm of concentration and Y is the response.

FGFR2 = biological target: T2, FGFR2 (Homo sapiens, UniProt P21802); assay: FGFR Enzymatic Assay (FRET peptide phosphorylation), FGFR2; conditions: FGFR2 0.01 nM, ATP 100 μM
T2 construct: purchased Millipore or Invitrogen
T2 sequence (P21802 22-821): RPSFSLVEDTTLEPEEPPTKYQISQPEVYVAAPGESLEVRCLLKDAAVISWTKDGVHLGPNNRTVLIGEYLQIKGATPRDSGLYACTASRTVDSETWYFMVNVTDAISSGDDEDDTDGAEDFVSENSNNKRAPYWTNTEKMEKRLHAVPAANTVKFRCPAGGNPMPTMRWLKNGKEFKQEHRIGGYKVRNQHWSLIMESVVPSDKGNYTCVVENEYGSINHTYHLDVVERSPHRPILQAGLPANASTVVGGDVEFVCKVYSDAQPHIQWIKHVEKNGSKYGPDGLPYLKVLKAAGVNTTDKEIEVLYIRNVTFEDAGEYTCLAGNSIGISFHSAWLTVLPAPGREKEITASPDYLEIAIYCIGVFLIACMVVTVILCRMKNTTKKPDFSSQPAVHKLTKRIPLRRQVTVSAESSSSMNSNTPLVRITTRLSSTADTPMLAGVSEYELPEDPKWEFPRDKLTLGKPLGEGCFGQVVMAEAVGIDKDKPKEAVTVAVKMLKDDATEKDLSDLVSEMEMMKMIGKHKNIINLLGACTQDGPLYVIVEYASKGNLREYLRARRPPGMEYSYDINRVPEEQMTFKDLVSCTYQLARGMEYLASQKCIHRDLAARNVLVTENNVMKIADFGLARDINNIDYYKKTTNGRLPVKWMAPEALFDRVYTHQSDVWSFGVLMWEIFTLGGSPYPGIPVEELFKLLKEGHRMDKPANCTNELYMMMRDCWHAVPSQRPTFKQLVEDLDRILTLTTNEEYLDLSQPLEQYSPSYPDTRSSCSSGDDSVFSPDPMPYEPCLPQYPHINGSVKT
Procedure: as §1, §2, §3

FGFR3 = biological target: T3, FGFR3 (Homo sapiens, UniProt P22607); assay: FGFR Enzymatic Assay (FRET peptide phosphorylation), FGFR3; conditions: ATP 140 μM, 25° C. for 1 hr
T3 construct: purchased Millipore
T3 sequence (P22607 23-806): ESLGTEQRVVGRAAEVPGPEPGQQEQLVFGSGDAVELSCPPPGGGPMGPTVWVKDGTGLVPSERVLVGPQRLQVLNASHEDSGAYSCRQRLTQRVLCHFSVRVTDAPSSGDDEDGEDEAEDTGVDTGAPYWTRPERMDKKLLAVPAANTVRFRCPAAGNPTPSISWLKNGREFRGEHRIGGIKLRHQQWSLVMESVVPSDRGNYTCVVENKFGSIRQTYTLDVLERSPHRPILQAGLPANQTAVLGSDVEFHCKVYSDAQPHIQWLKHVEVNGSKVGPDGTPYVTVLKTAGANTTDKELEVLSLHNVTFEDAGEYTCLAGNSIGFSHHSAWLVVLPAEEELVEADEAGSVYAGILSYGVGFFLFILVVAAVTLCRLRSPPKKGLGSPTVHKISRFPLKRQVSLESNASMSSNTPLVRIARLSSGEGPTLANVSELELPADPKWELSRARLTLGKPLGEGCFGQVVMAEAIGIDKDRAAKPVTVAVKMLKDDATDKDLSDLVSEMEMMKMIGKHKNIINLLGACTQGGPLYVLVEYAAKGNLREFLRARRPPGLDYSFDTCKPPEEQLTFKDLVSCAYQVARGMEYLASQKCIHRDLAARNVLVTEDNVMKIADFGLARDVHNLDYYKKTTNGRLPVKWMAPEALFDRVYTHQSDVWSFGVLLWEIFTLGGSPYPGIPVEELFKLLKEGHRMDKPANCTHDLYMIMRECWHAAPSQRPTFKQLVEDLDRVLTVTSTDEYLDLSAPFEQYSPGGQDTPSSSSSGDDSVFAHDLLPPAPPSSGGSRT
Procedure: as §1, §3

Measured: pIC50

T1 sequence (P11362 22-822): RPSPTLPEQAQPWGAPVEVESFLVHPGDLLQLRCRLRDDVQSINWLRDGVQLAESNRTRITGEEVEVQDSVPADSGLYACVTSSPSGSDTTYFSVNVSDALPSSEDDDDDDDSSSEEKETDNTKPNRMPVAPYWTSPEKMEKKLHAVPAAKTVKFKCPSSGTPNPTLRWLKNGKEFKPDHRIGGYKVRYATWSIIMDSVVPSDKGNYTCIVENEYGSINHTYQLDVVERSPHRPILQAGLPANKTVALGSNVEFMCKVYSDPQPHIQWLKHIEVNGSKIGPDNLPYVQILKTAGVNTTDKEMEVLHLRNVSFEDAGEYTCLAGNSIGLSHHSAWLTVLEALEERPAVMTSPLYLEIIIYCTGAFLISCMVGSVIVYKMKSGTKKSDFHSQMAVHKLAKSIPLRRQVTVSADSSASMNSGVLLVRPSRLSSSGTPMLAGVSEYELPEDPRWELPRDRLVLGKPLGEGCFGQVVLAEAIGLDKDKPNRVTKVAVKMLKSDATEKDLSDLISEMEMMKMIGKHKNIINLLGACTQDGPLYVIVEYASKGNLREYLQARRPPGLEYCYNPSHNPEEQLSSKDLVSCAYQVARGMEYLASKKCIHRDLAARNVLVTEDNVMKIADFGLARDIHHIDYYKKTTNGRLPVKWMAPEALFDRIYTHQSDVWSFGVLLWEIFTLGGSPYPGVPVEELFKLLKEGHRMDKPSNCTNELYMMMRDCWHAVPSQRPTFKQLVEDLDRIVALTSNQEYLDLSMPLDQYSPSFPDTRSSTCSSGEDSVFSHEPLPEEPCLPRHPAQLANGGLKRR

COc1cc(OC)c(Cl)c(-c2cc3[nH]nc(-c4cnn(CC(=O)N5CCC(OC)C5)c4)c3cn2)c1Cl (stereo not drawn) [Example 45, 6-(2,6-Dichloro-3,5-dimethoxyphenyl)-3-{1-[2-(3-methoxypyrrolidin-1-yl)-2-oxoethyl]-1H-pyrazol-4-yl}-1H-pyrazolo[4,3-c]pyridine]
> 7.00: all assays above

COCCNC(=O)Cn1cc(-c2n[nH]c3cc(-c4c(Cl)c(OC)cc(OC)c4Cl)ncc23)cn1 [Example 46, 2-{4-[6-(2,6-Dichloro-3,5-dimethoxyphenyl)-1H-pyrazolo[4,3-c]pyridin-3-yl]-1H-pyrazol-1-yl}-N-(2-methoxyethyl)acetamide]
> 7.00: all assays above

COc1cc(OC)c(Cl)c(-c2cc3[nH]nc(-c4cnn(CC(=O)N5CCC(C#N)C5)c4)c3cn2)c1Cl (stereo not drawn) [Example 47, 1-({4-[6-(2,6-Dichloro-3,5-dimethoxyphenyl)-1H-pyrazolo[4,3-c]pyridin-3-yl]-1H-pyrazol-1-yl}acetyl)pyrrolidine-3-carbonitrile]
> 7.00: all assays above

COc1cc(OC)c(Cl)c(-c2cc3[nH]nc(-c4cnn(CC(=O)N5CC[C@H](F)C5)c4)c3cn2)c1Cl [Example 48, 6-(2,6-Dichloro-3,5-dimethoxyphenyl)-3-(1-{2-[(3S)-3-fluoropyrrolidin-1-yl]-2-oxoethyl}-1H-pyrazol-4-yl)-1H-pyrazolo[4,3-c]pyridine]
> 7.00: all assays above

COc1cc(OC)c(Cl)c(-c2cc3[nH]nc(/C=C/c4cnn(C)c4)c3cn2)c1Cl [Example 49, 6-(2,6-Dichloro-3,5-dimethoxyphenyl)-3-[(E)-2-(1-methyl-1H-pyrazol-4-yl)vinyl]-1H-pyrazolo[4,3-c]pyridine]
> 7.00: all assays above

COc1cc(OC)c(Cl)c(-c2cc3[nH]nc(/C=C/c4cnn(CCO)c4)c3cn2)c1Cl [Example 50, 2-(4-{(E)-2-[6-(2,6-Dichloro-3,5-dimethoxyphenyl)-1H-pyrazolo[4,3-c]pyridin-3-yl]vinyl}-1H-pyrazol-1-yl)ethanol]
> 7.00: all assays above

COc1cc(OC)c(Cl)c(-c2cc3[nH]nc(-c4cnn(C[C@H](C)O)c4)c3cn2)c1Cl [Example 51, (2S)-1-{4-[6-(2,6-Dichloro-3,5-dimethoxyphenyl)-1H-pyrazolo[4,3-c]pyridin-3-yl]-1H-pyrazol-1-yl}propan-2-ol]
> 7.00: all assays above

CCN1Cc2cc(-c3n[nH]c4cc(-c5c(F)c(OC)cc(OC)c5F)ncc34)ccc2C1=O [Example 52, 5-[6-(2,6-Difluoro-3,5-dimethoxyphenyl)-1H-pyrazolo[4,3-c]pyridin-3-yl]-2-ethylisoindolin-1-one]
> 7.00: all assays above

COc1cc(OC)c(F)c(-c2cc3[nH]nc(-c4ccc5c(c4)CN(C(C)C)C5=O)c3cn2)c1F [Example 53, 5-[6-(2,6-Difluoro-3,5-dimethoxyphenyl)-1H-pyrazolo[4,3-c]pyridin-3-yl]-2-isopropylisoindolin-1-one]
> 7.00: all assays above

COc1cc(OC)c(F)c(-c2cc3[nH]nc(-c4ccc5c(c4)CN(C4CC4)C5=O)c3cn2)c1F [Example 54, 2-Cyclopropyl-5-[6-(2,6-difluoro-3,5-dimethoxyphenyl)-1H-pyrazolo[4,3-c]pyridin-3-yl]isoindolin-1-one]
> 7.00: all assays above

CCN1Cc2cc(-c3n[nH]c4cc(-c5c(F)c(OC)cc(OC)c5F)ncc34)cnc2C1=O [Example 55, 3-[6-(2,6-Difluoro-3,5-dimethoxyphenyl)-1H-pyrazolo[4,3-c]pyridin-3-yl]-6-ethyl-5,6-dihydro-7H-pyrrolo[3,4-b]pyridin-7-one]
> 7.00: all assays above

COc1cc(OC)c(F)c(-c2cc3[nH]nc(-c4ccc5c(c4)CCNC5=O)c3cn2)c1F [Example 56, 6-[6-(2,6-Difluoro-3,5-dimethoxyphenyl)-1H-pyrazolo[4,3-c]pyridin-3-yl]-3,4-dihydroisoquinolin-1(2H)-one]
> 7.00: all assays above

COc1cc(OC)c(F)c(-c2cc3[nH]nc(-c4ccc5c(c4)CCC(C(=O)N(C)C)O5)c3cn2)c1F (stereo not drawn) [Example 57, 6-[6-(2,6-Difluoro-3,5-dimethoxyphenyl)-1H-pyrazolo[4,3-c]pyridin-3-yl]-N,N-dimethylchromane-2-carboxamide]
> 7.00: all assays above

COCCN1Cc2cc(-c3n[nH]c4cc(-c5c(F)c(OC)cc(OC)c5F)ncc34)ccc2C1=O [Example 58, 5-[6-(2,6-Difluoro-3,5-dimethoxyphenyl)-1H-pyrazolo[4,3-c]pyridin-3-yl]-2-(2-methoxyethyl)isoindolin-1-one]
> 7.00: all assays above

COc1cc(OC)c(F)c(-c2cc3[nH]nc(-c4ccc5c(c4)CN(C4CCOCC4)C5=O)c3cn2)c1F [Example 59, 5-[6-(2,6-Difluoro-3,5-dimethoxyphenyl)-1H-pyrazolo[4,3-c]pyridin-3-yl]-2-(tetrahydro-2H-pyran-4-yl)isoindolin-1-one]
> 7.00: all assays above

COc1cc(OC)c(F)c(-c2cc3[nH]nc(-c4ccc5c(c4)CN(CC(F)(F)F)C5=O)c3cn2)c1F [Example 60, 5-[6-(2,6-Difluoro-3,5-dimethoxyphenyl)-1H-pyrazolo[4,3-c]pyridin-3-yl]-2-(2,2,2-trifluoroethyl)isoindolin-1-one]
> 7.00: all assays above

COc1cc(OC)c(F)c(-c2cc3[nH]nc(-c4ccc5c(c4)CN([C@H]4CC[C@@H](O)CC4)C5=O)c3cn2)c1F [Example 61, 5-[6-(2,6-Difluoro-3,5-dimethoxyphenyl)-1H-pyrazolo[4,3-c]pyridin-3-yl]-2-(cis-4-hydroxycyclohexyl)isoindolin-1-one]
> 7.00: all assays above

COc1cc(OC)c(F)c(-c2cc3[nH]nc(-c4ccc5c(c4)CN([C@H]4CC[C@H](O)CC4)C5=O)c3cn2)c1F [Example 62, 5-[6-(2,6-Difluoro-3,5-dimethoxyphenyl)-1H-pyrazolo[4,3-c]pyridin-3-yl]-2-(trans-4-hydroxycyclohexyl)isoindolin-1-one]
> 7.00: all assays above

COc1cc(OC)c(F)c(-c2cc3[nH]nc(-c4ccc5c(c4)CN(C(C)CO)C5=O)c3cn2)c1F (stereo not drawn) [Example 63, 5-[6-(2,6-Difluoro-3,5-dimethoxyphenyl)-1H-pyrazolo[4,3-c]pyridin-3-yl]-2-(2-hydroxy-1-methylethyl)isoindolin-1-one]
> 7.00: all assays above

COc1cc(OC)c(F)c(-c2cc3[nH]nc(-c4ccc5c(c4)CN(CC(C)O)C5=O)c3cn2)c1F (stereo not drawn) [Example 64, 5-[6-(2,6-Difluoro-3,5-dimethoxyphenyl)-1H-pyrazolo[4,3-c]pyridin-3-yl]-2-(2-hydroxypropyl)isoindolin-1-one]
> 7.00: all assays above

COc1cc(OC)c(F)c(-c2cc3[nH]nc(-c4cc5c(cc4F)C(=O)N(C(C)C)C5)c3cn2)c1F [Example 65, 5-[6-(2,6-Difluoro-3,5-dimethoxyphenyl)-1H-pyrazolo[4,3-c]pyridin-3-yl]-6-fluoro-2-isopropylisoindolin-1-one]
> 7.00: all assays above

COc1cc(OC)c(F)c(-c2cc3[nH]nc(-c4ccc5c(c4)CN(C4CCN(C)CC4)C5=O)c3cn2)c1F [Example 66, 5-[6-(2,6-Difluoro-3,5-dimethoxyphenyl)-1H-pyrazolo[4,3-c]pyridin-3-yl]-2-(1-methylpiperidin-4-yl)isoindolin-1-one]
> 7.00: all assays above

COc1cc(OC)c(F)c(-c2cc3[nH]nc(-c4ccc5c(c4)CN(CCN(C)C)C5=O)c3cn2)c1F [Example 67, 5-[6-(2,6-Difluoro-3,5-dimethoxyphenyl)-1H-pyrazolo[4,3-c]pyridin-3-yl]-2-[2-(dimethylamino)ethyl]isoindolin-1-one]
> 7.00: all assays above
